Marks after values point to notes of the source that are not given here.
Key:
[1] = biological target: ligand binding domain of thyroid hormone receptor beta (Homo sapiens (Human), UniProt P10828); assay: Thyroid hormone receptor TR-FRET binding assay (TRβ LBD); details: TRβ LBD 2 nM
Protocol: (§1) TR-FRET binding assay was used to test representative compounds herein.
(§2) The ligand binding domain of thyroid hormone receptor alpha and the ligand binding domain of thyroid hormone receptor beta with GST tag were purchased from Invitrogen. Biotin-SRC2-2 coactivator peptide was purchased from Sangon Biotech, Europium anti-GST and Streptavidin-D2 was from Cisbio.
(§3) Five microliters of 4× compound serial dilution was added in the 384-well plate, white, low volume, round-bottom assay plate. […] Centrifuge the assay plates at 1000 g for 1 min and incubate 1 hr at RT, protected from light. […] Calculate EC50 by fitting % Activity values and log of compound concentrations to nonlinear regression (dose response—variable slope) with Graphpad 5.0.

[2] = biological target: ligand binding domain of thyroid hormone receptor alpha (Homo sapiens (Human), UniProt P10827); assay: Thyroid hormone receptor TR-FRET binding assay (TRα LBD); details: TRα LBD 4 nM
Protocol: as §1, §2, §3

[3] = biological target: TRβ-GAL4 binding domain chimeric receptors (Homo sapiens (Human), UniProt P10828); assay: Thyroid hormone receptor cell assay (GAL4 luciferase reporter in HEK293-LUC cells); type: cell-based
Excerpt: TRα-LBD or TRβ-LBD, coding sequence was inserted into pBIND expression vector (Promega, E1581) to express TRβ-GAL4 binding domain chimeric receptors. This expression vector was transfected into HEK293-LUC host cells with reporter vector (pGL4.35 which carry a stably integrated GAL4 promoter driven luciferase reporter gene). Upon agonist binding to the corresponding TRa-GAL4 or TRb-GAL4 chimeric receptor, the chimeric receptor binds to the GAL4 binding sites and stimulates the reporter gene.
Seed 2.5×10^6 HEK293-LUC cells into a 60 mm dish and incubated for 16 h at 37° C. under 5% CO2 atmosphere. Mix 12 microliters of Lipo LTX reagent in 250 microliters of Opti-MEM Medium by inversion. Mix 6 ug of DNA in 250 uL of Opti-MEM medium, then add 6 uL of Lipo PLUS Reagent. Add diluted DNA to each tube of diluted Lipo LTX Reagent (1:1 ratio), and mix by Pipettor and incubate at room temperature for 10 min. The reagent mixture was added to a 60 mm dish, incubated with cells for 4-7 h at 37 degrees under 5% CO2 atmosphere.
75 nL compound was added into 384 well assay plate using ECHO550 and then add HEK293-LUC cells (transfected, 17,000 cells/well) into the plate using phenol red-free DMEM containing 5% charcoal/dextran-treated FBS and incubated for 16-20 h at […] under 5% CO2 atmosphere. Add 25 uL of Steady-Glo Luciferase Assay Reagent into each well. Shake for 5 min and then record the luminescence value on Envision 2104 plate reader.

[4] = Human hepatocyte clearance study; type: in vitro ADME
Protocol: The in vitro human hepatocyte clearance of compounds described here was studied using pooled human hepatocytes purchased from BioreclamationIVT (Westbury, NY, Cat # X008001, Lot # TQJ). The assay was conducted according to manufacturer's instruction. Briefly, 10 mM stock solutions of test compounds and positive control (Verapamil) were prepared in 100% DMSO. […] Incubation media is made of Williams E medium supplemented with 1×GlutaMax. Both thawing medium and incubation medium (serum-free) were placed in a 37° C. water bath for at least 15 minutes prior to use. […] Verapamil was use as a positive control in the assay. Vials of cryopreserved hepatocytes were removed from storage and thawed in a 37° C. water bath with gentle shaking. Contents of the vial were poured into the 50 mL thawing medium conical tube. Vials were centrifuged at 100 g for 10 minutes at room temperature. […] Hepatocyte viability and density were counted using a Trypan Blue exclusion, and then cells were diluted with serum-free incubation medium to a working cell density of 0.5×10^6 viable cells/mL. Then, a portion of the hepatocytes at 0.5×10^6 viable cells/mL was boiled for 5 minutes prior to adding to the plate as negative control to eliminate the enzymatic activity so that little or no substrate turnover should be observed. The boiled hepatocytes were used to prepare negative samples. Aliquots of 198 μL hepatocytes were dispensed into each well of a 96-well non-coated plate. The plate was placed in the incubator on an orbital shaker at 500 rpm for approximately 10 minutes. […] This assay was performed in duplicate. The plate was incubated in the incubator on an orbital shaker at 500 rpm for the designated time points. Twenty-five microliter of contents were transferred and mixed with 6 volumes (150 μL) of cold acetonitrile with IS (200 nM imipramine, 200 nM labetalol and 200 nM diclofenac) to terminate the reaction at time points of 0, 15, 30, 60, 90 and 120 minutes. […] For data analysis, all calculations were carried out using Microsoft Excel. Peak areas were determined from extracted ion chromatograms. The in vitro half-life (t1/2) of parent compound was determined by regression analysis of the percent parent disappearance vs. time curve. […] Conversion of the in vitro t1/2 (in minutes) into the scale-up unbound intrinsic clearance (scaled-up unbound CLint, in mL/min/kg) was done using the following equation (mean of duplicate determinations): Scaled-up unbound CLint=kV/N×scaling factor, where V=incubation volume (0.5 mL); N=number of hepatocytes per well (0.25×10^6 cells).

Chain of ligand binding domain of thyroid hormone receptor beta (P10828 217-461): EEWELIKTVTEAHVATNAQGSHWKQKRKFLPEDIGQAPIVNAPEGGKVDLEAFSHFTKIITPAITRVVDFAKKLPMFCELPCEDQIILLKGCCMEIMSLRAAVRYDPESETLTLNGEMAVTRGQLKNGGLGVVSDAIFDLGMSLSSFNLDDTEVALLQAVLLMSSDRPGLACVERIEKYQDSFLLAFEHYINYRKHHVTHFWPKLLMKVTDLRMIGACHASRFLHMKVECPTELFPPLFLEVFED
Chain of TRβ-GAL4 binding domain chimeric receptors (P10828 217-461, stated change not applied): as the sequence (P10828 217-461) above
Chain of ligand binding domain of thyroid hormone receptor alpha (P10827 other isoform, or with tags, fused parts or gaps del 1-162, other chains not shown): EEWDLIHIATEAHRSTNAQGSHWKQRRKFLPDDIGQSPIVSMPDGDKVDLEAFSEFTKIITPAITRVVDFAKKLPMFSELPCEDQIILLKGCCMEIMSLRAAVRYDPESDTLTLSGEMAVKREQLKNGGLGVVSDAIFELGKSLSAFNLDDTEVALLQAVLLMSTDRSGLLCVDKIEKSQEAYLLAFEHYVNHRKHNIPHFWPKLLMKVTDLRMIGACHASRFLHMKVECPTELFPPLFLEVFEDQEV

| Compound | EC50 [1] [µM] | EC50 [2] [µM] | EC50 [3] [µM] | other results |
| --- | --- | --- | --- | --- |
| N#Cc1nn(-c2cc(Cl)c(Oc3cc(C4CC4)c(=O)[nH]n3)c(Br)c2)c(=O)[nH]c1=O [Compound 7] | 0.37 | 5.82 | 7.38 | – |
| N#Cc1nn(-c2cc(Br)c(Oc3cc(C4CC4)c(=O)[nH]n3)c(Br)c2)c(=O)[nH]c1=O [Compound 8] | – | – | – | Human In vitro T1/2 ([4]; human, hepatocytes): ∞*; Human In vitro Clint ([4]; human, hepatocytes, 1 µM): 0.00* μL/min/10^6 cells; Human Scale-up Clint ([4]; human, hepatocytes, 1 µM): 0.00* mL/min/kg; Human Hepatocyte Remaining Percentage @ 120 min ([4]; human, hepatocytes, 2 h, 1 µM): 98% |
| Cc1nn(-c2cc(Cl)c(Oc3cc(C4CCC4)c(=O)[nH]n3)c(Cl)c2)c(=O)[nH]c1=O [Compound 9] | – | – | – | CLint scaled at 1 µM ([4]; human, hepatocytes): 9.5 mL/min/kg; half-life at 1 µM ([4]; human, hepatocytes): 6.18 h; hepatocyte CLint at 1 µM ([4]; human, hepatocytes): 3.73 µL/min/1e6 cells; Human Hepatocyte Remaining Percentage @ 120 min ([4]; human, hepatocytes, 2 h, 1 µM): 79% |
| Cc1nn(-c2cc(Cl)c(Oc3cc(C4CCCC4)c(=O)[nH]n3)c(Cl)c2)c(=O)[nH]c1=O [Compound 14] | 0.37 | 4.06 | 0.65 | – |
| Cc1nn(-c2cc(Cl)c(Oc3cc(C4CCCCC4)c(=O)[nH]n3)c(Cl)c2)c(=O)[nH]c1=O [Compound 15] | 4.33 | 60.2 | 4.61 | – |
| N#Cc1nn(-c2cc(Cl)c(Oc3cc(CC4CCCCC4)c(=O)[nH]n3)c(Cl)c2)c(=O)[nH]c1=O [Compound 17] | 0.72 | > 90 | 12.2 | – |
| N#Cc1nn(-c2cc(Br)c(Oc3cc(C4CCCC4)c(=O)[nH]n3)c(Br)c2)c(=O)[nH]c1=O [Compound 20] | 0.17 | > 90 | 4.98 | – |
| Cc1nn(-c2cc(Br)c(Oc3cc(C4CCCC4)c(=O)[nH]n3)c(Br)c2)c(=O)[nH]c1=O [Compound 22] | 0.09 | 1.4 | 0.2 | – |
| Cc1nn(-c2cc(Br)c(Oc3cc(C4CC4)c(=O)[nH]n3)c(Br)c2)c(=O)[nH]c1=O [Compound 23] | 0.06 | 0.56 | 0.18 | – |
| Cc1nn(-c2cc(Cl)c(Oc3cc(Cc4ccccc4)c(=O)[nH]n3)c(Cl)c2)c(=O)[nH]c1=O [Compound 27] | – | – | – | Human Hepatocyte Remaining Percentage @ 120 min ([4]; human hepatocytes, 120 min): 100%; Human Scale-up Clint ([4]; human hepatocytes, scaling factor 2544.3): 1.04 mL/min/kg; Human In vitro Clint ([4]; human, hepatocytes): 0.41 μL/min/10^6 cells; Human In vitro T1/2 ([4]; human, hepatocytes): 56.77 h |
| N#Cc1nn(-c2cc(Cl)c(Oc3cc(Cc4ccc(O)cc4)c(=O)[nH]n3)c(Cl)c2)c(=O)[nH]c1=O [Compound 33] | 0.08 | 1.27 | 11.5 | – |
| Cc1nn(-c2cc(Cl)c(Oc3cc(C(C)C)c(=O)[nH]n3)c(Cl)c2)c(=O)[nH]c1=O [Compound 35] | – | 2.57 | – | Human In vitro Clint ([4]; human, hepatocytes): 2.21 μL/min/10^6 cells; Human In vitro T1/2 ([4]; human, hepatocytes): 10.4 h; Human Scale-up Clint ([4]; human, hepatocytes): 5.63 mL/min/kg; Human Hepatocyte Remaining Percentage @ 120 min ([4]; human, hepatocytes, 2 h): 89% |
| CCc1nn(-c2cc(Cl)c(Oc3cc(C(C)C)c(=O)[nH]n3)c(Cl)c2)c(=O)[nH]c1=O [Compound 37] | 1.55 | 9.82 | 1.22 | – |
| CCC(CC)c1cc(Oc2c(Cl)cc(-n3nc(C)c(=O)[nH]c3=O)cc2Cl)n[nH]c1=O [Compound 40] | 0.41 | 38.8 | 0.61 | – |
| Cc1nn(-c2cc(Br)c(Oc3cc(C(C)C)c(=O)[nH]n3)c(Br)c2)c(=O)[nH]c1=O [Compound 46] | 0.03 | 0.31 | 0.09 | – |
| CC(C)c1cc(Oc2c(Cl)cc(-n3nc(C#N)c(=O)[nH]c3=O)cc2C(F)(F)F)n[nH]c1=O [Compound 47] | 0.16 | 1.49 | 4.13 | – |
| CC(C)c1c[nH]c2ccc(Oc3c(Cl)cc(-n4nc(C#N)c(=O)[nH]c4=O)cc3Cl)cc12 [Compound 56] | 0.09 | 1.03 | 1.05 | – |
| N#Cc1nn(-c2cc(Cl)c(Oc3cc(C4CCC4)c(=O)[nH]n3)c(C(F)(F)F)c2)c(=O)[nH]c1=O [Compound 62] | 0.18 | 1.43 | 5.29 | – |
| N#Cc1nn(-c2cc(Cl)c(Oc3cc(C4CCCC4)c(=O)[nH]n3)c(C(F)(F)F)c2)c(=O)[nH]c1=O [Compound 63] | 0.17 | 90 | 8.43 | – |
| N#Cc1nn(-c2cc(Cl)c(Oc3cc(C4CC4)c(=O)[nH]n3)c(C(F)(F)F)c2)c(=O)[nH]c1=O [Compound 65] | 0.15 | 1.04 | 4.1 | CLint scaled at 1 µM ([4]; human, hepatocytes): 4.53 mL/min/kg; half-life at 1 µM ([4]; human, hepatocytes): 13 h; hepatocyte CLint at 1 µM ([4]; human, hepatocytes): 1.78 µL/min/1e6 cells; Human Hepatocyte Remaining Percentage @ 120 min ([4]; human, hepatocytes, 2 h, 1 µM): 94% |
| Cc1nn(-c2cc(Cl)c(Oc3cc(Cc4ccc(C#N)cc4)c(=O)[nH]n3)c(Cl)c2)c(=O)[nH]c1=O [Compound 66] | – | – | – | CLint scaled at 1 µM ([4]; human, hepatocytes): 4 mL/min/kg; half-life at 1 µM ([4]; human, hepatocytes): 14.7 h; hepatocyte CLint at 1 µM ([4]; human, hepatocytes): 1.57 µL/min/1e6 cells; Human Hepatocyte Remaining Percentage @ 120 min ([4]; human, hepatocytes, 2 h, 1 µM): 93% |
| N#Cc1nn(-c2cc(Cl)c(Oc3cc(Cc4ccc5[nH]ncc5c4)c(=O)[nH]n3)c(Cl)c2)c(=O)[nH]c1=O [Compound 73] | 0.1 | 1.18 | 11.2 | – |
| CC(C)c1c[nH]c2ccc(Oc3c(Cl)cc(-n4nc(C#N)c(=O)[nH]c4=O)cc3C(F)(F)F)cc12 [Compound 83] | 0.02 | 0.14 | 0.23 | – |
| CC(C)c1cc(Oc2c(Cl)cc(-n3nc(C#N)c(=O)[nH]c3=O)cc2Cl)n[nH]c1=O [MGL-3196, reference compound] | – | – | – | CLint scaled at 1 µM ([4]; human, hepatocytes): 21.3 mL/min/kg; half-life at 1 µM ([4]; human, hepatocytes): 2.75 h; hepatocyte CLint at 1 µM ([4]; human, hepatocytes): 8.39 µL/min/1e6 cells; Human Hepatocyte Remaining Percentage @ 120 min ([4]; human, hepatocytes, 2 h, 1 µM): 60% |

Reference: patent publication US12391677B2, “Thyroid hormone receptor agonists” (INVENTISBIO CO., LTD., priority 2018, dated 2025)
